Source: ChEMBL document CHEMBL2417479, “Effects of the methoxy group in the side chain of debromoaplysiatoxin on its tumor-promoting and anti-proliferative activities” (Bioorg Med Chem Lett, 2013)

Tests used:
[1] = Cytotoxicity against human Raji cells assessed as cell viability at 10^-8 M relative to control; assay type: cell-based; conditions: read-out: Activity
[2] = Cytotoxicity against human Raji cells assessed as cell viability at 10^-7 M relative to control; assay type: cell-based; conditions: read-out: Activity
Mus musculus [3] = test: In vivo tumor-promoting activity in DMBA-treated ICR mouse assessed as increase in number of papillomas at 3.4 nmol administered twice per week measured at 11 to 20 weeks by two-stage carcinogenesis assay; assay type: ADME, organism-based
Raji [4] = test: Tumor-promoting activity against human Raji cells expressing EBV-EA at 10^-8 M after 48 hrs by indirect immunofluorescence assay relative to control; assay type: ADME, cell-based; conditions: 0.01 µM
Mus musculus [5] = test: In vivo tumor-promoting activity in DMBA-treated ICR mouse assessed as increase in number of papillomas at 1.7 nmol administered twice per week measured at 13 to 20 weeks by two-stage carcinogenesis assay; assay type: ADME, organism-based
Mus musculus [6] = test: In vivo tumor-promoting activity in DMBA-treated ICR mouse assessed as tumor bearing mouse at 1.7 nmol administered twice per week measured after 20 weeks by two-stage carcinogenesis assay relative to control; assay type: ADME, organism-based; conditions: 3360 h
Raji [7] = test: Tumor-promoting activity against human Raji cells expressing EBV-EA at 10^-6 M after 48 hrs by indirect immunofluorescence assay relative to control; assay type: ADME, cell-based; conditions: 1 µM
[8] = Cytotoxicity against human Raji cells assessed as cell viability at 10^-6 M relative to control; assay type: cell-based; conditions: read-out: Activity
Raji [9] = test: Tumor-promoting activity against human Raji cells expressing EBV-EA at 10^-7 M after 48 hrs by indirect immunofluorescence assay relative to control; assay type: ADME, cell-based; conditions: 0.1 µM
Mus musculus [10] = test: In vivo tumor-promoting activity in DMBA-treated ICR mouse assessed as tumor bearing mouse at 3.4 nmol administered twice per week measured after 20 weeks by two-stage carcinogenesis assay relative to control; assay type: ADME, organism-based; conditions: 3360 h
MKN-28 = test: Growth inhibition of human MKN28 cells after 48 hrs by SRB assay; assay type: functional; conditions: MKN-28, 48 h
[11] = Growth inhibition of human MKN1 cells after 48 hrs by SRB assay; assay type: functional; conditions: MKN-1, 48 h
MDA-MB-231 = test: Growth inhibition of human MDA-MB-231 cells after 48 hrs by SRB assay; assay type: functional; conditions: MDA-MB-231, 48 h
MKN-7 = test: Growth inhibition of human MKN7 cells after 48 hrs by SRB assay; assay type: functional; conditions: MKN-7, 48 h
OVCAR-4 = test: Growth inhibition of human OVCAR4 cells after 48 hrs by SRB assay; assay type: functional; conditions: OVCAR-4, 48 h
OVCAR-3 = test: Growth inhibition of human OVCAR3 cells after 48 hrs by SRB assay; assay type: functional; conditions: OVCAR-3, 48 h
MCF7 = test: Growth inhibition of human MCF7 cells after 48 hrs by SRB assay; assay type: functional; conditions: MCF7, 48 h
DMS-114 = test: Growth inhibition of human DMS114 cells after 48 hrs by SRB assay; assay type: functional; conditions: DMS-114, 48 h
SF-268 = test: Growth inhibition of human SF268 cells after 48 hrs by SRB assay; assay type: functional; conditions: SF-268, 48 h
HT-29 = test: Growth inhibition of human HT-29 cells after 48 hrs by SRB assay; assay type: functional; conditions: HT-29, 48 h
NCI-H522 = test: Growth inhibition of human NCI-H522 cells after 48 hrs by SRB assay; assay type: functional; conditions: NCI-H522, 48 h
HCT-15 = test: Growth inhibition of human HCT15 cells after 48 hrs by SRB assay; assay type: functional; conditions: HCT-15, 48 h
[12] = molecular target: Protein kinase C alpha type (Homo sapiens, UniProt P17252); test: Displacement of [3H]PDBu from PKCalpha C1A domain (unknown origin)
[13] = Growth inhibition of human HBC5 cells after 48 hrs by SRB assay; assay type: functional; conditions: HBC5, 48 h
MKN-45 = test: Growth inhibition of human MKN45 cells after 48 hrs by SRB assay; assay type: functional; conditions: MKN-45, 48 h
ACHN = test: Growth inhibition of human ACHN cells after 48 hrs by SRB assay; assay type: functional
SF-539 = test: Growth inhibition of human SF539 cells after 48 hrs by SRB assay; assay type: functional; conditions: SF-539, 48 h
SF-295 = test: Growth inhibition of human SF295 cells after 48 hrs by SRB assay; assay type: functional; conditions: SF-295, 48 h
NCI-H23 = test: Growth inhibition of human NCI-H23 cells after 48 hrs by SRB assay; assay type: functional; conditions: NCI-H23, 48 h
SNB-75 = test: Growth inhibition of human SNB75 cells after 48 hrs by SRB assay; assay type: functional; conditions: SNB-75, 48 h
[14] = Growth inhibition of human BSY1 cells after 48 hrs by SRB assay; assay type: functional; conditions: BSY-1, 48 h
MKN-74 = test: Growth inhibition of human MKN74 cells after 48 hrs by SRB assay; assay type: functional; conditions: MKN-74, 48 h
[15] = molecular target: Protein kinase C eta type (Homo sapiens, UniProt P24723); test: Displacement of [3H]PDBu from PKCeta C1B domain (unknown origin)
Sequence of Protein kinase C eta type (P24723 whole entry, the tested form may be a part): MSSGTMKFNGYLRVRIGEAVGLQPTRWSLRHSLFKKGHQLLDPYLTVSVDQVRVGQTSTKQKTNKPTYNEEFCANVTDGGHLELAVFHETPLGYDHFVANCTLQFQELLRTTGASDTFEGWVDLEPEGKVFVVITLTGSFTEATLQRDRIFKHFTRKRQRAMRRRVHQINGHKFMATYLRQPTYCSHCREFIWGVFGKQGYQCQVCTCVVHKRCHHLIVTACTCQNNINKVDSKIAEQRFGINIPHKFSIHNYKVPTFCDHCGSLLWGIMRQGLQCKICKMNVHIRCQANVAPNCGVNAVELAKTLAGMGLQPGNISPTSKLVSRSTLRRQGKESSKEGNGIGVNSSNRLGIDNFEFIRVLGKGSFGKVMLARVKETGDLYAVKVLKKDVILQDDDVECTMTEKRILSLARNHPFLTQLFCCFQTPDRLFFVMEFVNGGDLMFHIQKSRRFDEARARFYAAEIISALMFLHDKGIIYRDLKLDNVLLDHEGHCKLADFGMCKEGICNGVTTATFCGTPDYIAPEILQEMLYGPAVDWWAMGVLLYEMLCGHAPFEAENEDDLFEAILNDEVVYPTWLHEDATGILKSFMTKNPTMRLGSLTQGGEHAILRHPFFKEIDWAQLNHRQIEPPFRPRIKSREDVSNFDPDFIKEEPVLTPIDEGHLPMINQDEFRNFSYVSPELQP

[16] = molecular target: Protein kinase C delta type (Homo sapiens, UniProt Q05655); test: Displacement of [3H]PDBu from PKCdelta C1B domain (unknown origin)
Sequence of Protein kinase C delta type (Q05655 whole entry, the tested form may be a part): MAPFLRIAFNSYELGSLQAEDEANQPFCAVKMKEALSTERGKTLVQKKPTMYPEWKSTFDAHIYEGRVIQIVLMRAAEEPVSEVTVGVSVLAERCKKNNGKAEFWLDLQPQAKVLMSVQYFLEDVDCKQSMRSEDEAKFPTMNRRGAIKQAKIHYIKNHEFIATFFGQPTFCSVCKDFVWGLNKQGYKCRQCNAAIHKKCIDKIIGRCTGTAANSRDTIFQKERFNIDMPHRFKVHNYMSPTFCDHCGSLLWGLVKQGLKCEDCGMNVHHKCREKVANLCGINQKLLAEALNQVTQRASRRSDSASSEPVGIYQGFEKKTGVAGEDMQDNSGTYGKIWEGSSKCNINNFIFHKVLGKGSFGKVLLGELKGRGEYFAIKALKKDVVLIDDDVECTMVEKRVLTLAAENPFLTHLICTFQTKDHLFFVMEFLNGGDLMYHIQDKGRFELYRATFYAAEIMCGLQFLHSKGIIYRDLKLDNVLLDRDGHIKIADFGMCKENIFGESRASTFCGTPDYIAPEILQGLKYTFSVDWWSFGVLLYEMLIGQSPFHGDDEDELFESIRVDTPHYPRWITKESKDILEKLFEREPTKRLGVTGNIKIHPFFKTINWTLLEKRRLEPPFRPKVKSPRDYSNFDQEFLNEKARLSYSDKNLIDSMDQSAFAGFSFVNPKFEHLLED

DMS-273 = test: Growth inhibition of human DMS273 cells after 48 hrs by SRB assay; assay type: functional; conditions: DMS-273, 48 h
[17] = molecular target: Protein kinase C gamma type (Homo sapiens, UniProt P05129); test: Displacement of [3H]PDBu from PKCgamma C1A domain (unknown origin)
[18] = Growth inhibition of human HCC2998 cells after 48 hrs by SRB assay; assay type: functional; conditions: HCC 2998, 48 h
KM12 = test: Growth inhibition of human KM12 cells after 48 hrs by SRB assay; assay type: functional; conditions: KM12, 48 h
U-251 = test: Growth inhibition of human U251 cells after 48 hrs by SRB assay; assay type: functional; conditions: U-251, 48 h
OVCAR-5 = test: Growth inhibition of human OVCAR5 cells after 48 hrs by SRB assay; assay type: functional; conditions: OVCAR-5, 48 h
OVCAR-8 = test: Growth inhibition of human OVCAR8 cells after 48 hrs by SRB assay; assay type: functional; conditions: OVCAR-8, 48 h
SK-OV-3 = test: Growth inhibition of human SKOV3 cells after 48 hrs by SRB assay; assay type: functional; conditions: SK-OV-3, 48 h
[19] = Growth inhibition of human HBC4 cells after 48 hrs by SRB assay; assay type: functional; conditions: HBC4, 48 h
PC-3 = test: Growth inhibition of human PC3 cells after 48 hrs by SRB assay; assay type: functional; conditions: PC-3, 48 h
[20] = molecular target: Protein kinase C beta type (Homo sapiens, UniProt P05771); test: Displacement of [3H]PDBu from PKCbeta C1A domain (unknown origin)
Sequence of Protein kinase C beta type (P05771 whole entry, the tested form may be a part): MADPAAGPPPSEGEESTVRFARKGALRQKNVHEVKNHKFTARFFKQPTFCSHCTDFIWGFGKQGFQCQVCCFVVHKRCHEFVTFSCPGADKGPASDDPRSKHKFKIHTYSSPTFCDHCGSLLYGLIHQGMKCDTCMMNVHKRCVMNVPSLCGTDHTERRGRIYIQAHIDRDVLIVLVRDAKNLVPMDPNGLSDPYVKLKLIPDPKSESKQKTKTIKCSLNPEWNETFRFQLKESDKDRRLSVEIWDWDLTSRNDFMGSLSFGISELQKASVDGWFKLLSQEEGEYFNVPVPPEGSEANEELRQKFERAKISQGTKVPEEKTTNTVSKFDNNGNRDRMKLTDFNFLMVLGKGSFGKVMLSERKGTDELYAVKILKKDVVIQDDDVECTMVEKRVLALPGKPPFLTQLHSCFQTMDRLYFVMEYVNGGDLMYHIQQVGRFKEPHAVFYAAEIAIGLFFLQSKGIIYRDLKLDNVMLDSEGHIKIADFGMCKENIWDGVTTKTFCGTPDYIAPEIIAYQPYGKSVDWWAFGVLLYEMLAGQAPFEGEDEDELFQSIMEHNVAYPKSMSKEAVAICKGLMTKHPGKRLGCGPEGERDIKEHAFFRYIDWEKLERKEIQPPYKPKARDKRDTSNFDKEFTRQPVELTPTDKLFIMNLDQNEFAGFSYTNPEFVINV

DU-145 = test: Growth inhibition of human DU145 cells after 48 hrs by SRB assay; assay type: functional; conditions: DU-145, 48 h
NCI-H460 = test: Growth inhibition of human NCI-H460 cells after 48 hrs by SRB assay; assay type: functional; conditions: NCI-H460, 48 h
A549 = test: Growth inhibition of human A549 cells after 48 hrs by SRB assay; assay type: functional; conditions: A549, 48 h
St-4 = test: Growth inhibition of human St-4 cells after 48 hrs by SRB assay; assay type: functional; conditions: St-4, 48 h
SNB-78 = test: Growth inhibition of human SNB-78 cells after 48 hrs by SRB assay; assay type: functional; conditions: SNB-78, 48 h
NCI-H226 = test: Growth inhibition of human NCI-H226 cells after 48 hrs by SRB assay; assay type: functional; conditions: NCI-H226, 48 h
LOX IMVI = test: Growth inhibition of human LOXIMVI cells after 48 hrs by SRB assay; assay type: functional
[21] = Growth inhibition of human RXF631L cells after 48 hrs by SRB assay; assay type: functional; conditions: RXF 631, 48 h
[22] = molecular target: Protein kinase C theta type (Homo sapiens, UniProt Q04759); test: Displacement of [3H]PDBu from PKCtheta C1B domain (unknown origin)
Sequence of Protein kinase C theta type (Q04759 whole entry, the tested form may be a part): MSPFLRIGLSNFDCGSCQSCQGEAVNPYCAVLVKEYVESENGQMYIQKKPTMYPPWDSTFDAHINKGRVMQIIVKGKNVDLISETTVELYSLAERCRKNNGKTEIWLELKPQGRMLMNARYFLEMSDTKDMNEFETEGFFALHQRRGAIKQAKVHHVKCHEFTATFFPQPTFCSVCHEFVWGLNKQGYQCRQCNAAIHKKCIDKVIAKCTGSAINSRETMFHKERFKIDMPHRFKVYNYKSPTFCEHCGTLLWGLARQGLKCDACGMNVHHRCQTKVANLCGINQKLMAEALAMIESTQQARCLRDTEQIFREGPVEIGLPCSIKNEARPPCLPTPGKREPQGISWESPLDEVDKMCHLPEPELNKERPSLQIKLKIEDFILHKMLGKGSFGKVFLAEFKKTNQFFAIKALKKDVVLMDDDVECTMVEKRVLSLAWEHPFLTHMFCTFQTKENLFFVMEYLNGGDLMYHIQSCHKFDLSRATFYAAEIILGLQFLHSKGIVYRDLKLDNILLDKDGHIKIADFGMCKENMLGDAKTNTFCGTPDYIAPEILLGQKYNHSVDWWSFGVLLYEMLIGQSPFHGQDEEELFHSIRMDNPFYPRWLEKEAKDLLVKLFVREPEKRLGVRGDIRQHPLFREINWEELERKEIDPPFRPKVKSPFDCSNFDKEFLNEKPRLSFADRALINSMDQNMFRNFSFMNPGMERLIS

HCT-116 = test: Growth inhibition of human HCT116 cells after 48 hrs by SRB assay; assay type: functional; conditions: HCT-116, 48 h
[23] = molecular target: Protein kinase C epsilon type (Homo sapiens, UniProt Q02156); test: Displacement of [3H]PDBu from PKCepsilon C1B domain (unknown origin)
Sequence of Protein kinase C epsilon type (Q02156 whole entry, the tested form may be a part): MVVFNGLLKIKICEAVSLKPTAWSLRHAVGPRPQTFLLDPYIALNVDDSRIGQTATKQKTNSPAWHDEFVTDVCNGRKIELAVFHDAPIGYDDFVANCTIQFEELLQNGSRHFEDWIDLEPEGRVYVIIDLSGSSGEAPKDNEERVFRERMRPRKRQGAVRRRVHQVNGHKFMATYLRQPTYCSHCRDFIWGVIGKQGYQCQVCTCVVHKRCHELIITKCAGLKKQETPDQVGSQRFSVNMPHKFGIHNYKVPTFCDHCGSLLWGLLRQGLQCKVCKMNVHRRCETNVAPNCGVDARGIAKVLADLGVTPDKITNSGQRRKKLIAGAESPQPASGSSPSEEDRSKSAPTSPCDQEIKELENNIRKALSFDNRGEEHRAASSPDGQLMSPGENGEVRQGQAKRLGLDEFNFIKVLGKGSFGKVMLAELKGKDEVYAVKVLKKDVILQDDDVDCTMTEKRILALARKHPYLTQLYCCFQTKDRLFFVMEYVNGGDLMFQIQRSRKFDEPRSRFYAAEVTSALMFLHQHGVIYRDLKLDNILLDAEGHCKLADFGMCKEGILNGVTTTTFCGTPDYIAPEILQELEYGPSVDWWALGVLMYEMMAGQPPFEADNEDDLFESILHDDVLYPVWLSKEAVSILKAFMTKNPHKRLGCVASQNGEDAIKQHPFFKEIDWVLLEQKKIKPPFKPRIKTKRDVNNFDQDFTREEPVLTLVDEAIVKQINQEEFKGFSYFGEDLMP

Q: With CO[C@@H](CC[C@H](C)[C@H]1O[C@@]23C[C@H](OC(=O)C[C@H]([C@@H](C)O)OC(=O)C[C@](O)(O2)[C@H](C)CC3(C)C)[C@@H]1C)c1cccc(O)c1 [DEBROMOAPLYSIATOXIN] as the compound, how does the viability at 0.01 µM [1] read?
A: 60%

Q: And the viability at 0.1 µM [2]?
A: 50%

Q: What about the Activity (Mus musculus [3]) of the same compound?
A: Toxic

Q: What about the Activity (Raji [4]) of the same compound?
A: 21.1%

Q: What about the Activity (Mus musculus [5]) of the same compound?
A: Toxic

Q: What about the Activity (Mus musculus [6]) of the same compound?
A: 80%

Q: What about the Activity (Raji [7]) of the same compound?
A: 24.4%

Q: And the viability at 1 µM [8]?
A: 50%

Q: And the Activity (Raji [9])?
A: 22.9%

Q: What about the Activity (Mus musculus [10]) of the same compound?
A: 90%

Q: With C[C@@H]1[C@@H]([C@@H](C)CCCc2cccc(O)c2)O[C@@]23C[C@@H]1OC(=O)C[C@H]([C@@H](C)O)OC(=O)C[C@](O)(O2)[C@H](C)CC3(C)C [DEMETHOXYDEBROMOAPLYSIATOXIN] as the compound, how does the GI50 (MKN-28) read?
A: 6.76 µM

Q: What about the GI50 [11] of the same compound?
A: 5.5 µM

Q: What about the GI50 (MDA-MB-231) of the same compound?
A: 0.049 µM

Q: What about the GI50 (MKN-7) of the same compound?
A: 2.75 µM

Q: What about the GI50 (OVCAR-4) of the same compound?
A: 7.24 µM

Q: And the GI50 (OVCAR-3)?
A: 8.13 µM

Q: And the GI50 (MCF7)?
A: 5.62 µM

Q: And the GI50 (DMS-114)?
A: 5.5 µM

Q: What about the viability at 0.01 µM [1] of the same compound?
A: 60%

Q: And the GI50 (SF-268)?
A: 13.2 µM

Q: What about the viability at 0.1 µM [2] of the same compound?
A: 50%

Q: What about the Activity (Mus musculus [3]) of the same compound?
A: Toxic

Q: What about the Activity (Raji [4]) of the same compound?
A: 14.3%

Q: What about the GI50 (HT-29) of the same compound?
A: 12.3 µM

Q: What about the GI50 (NCI-H522) of the same compound?
A: 4.79 µM

Q: What about the GI50 (HCT-15) of the same compound?
A: 9.77 µM

Q: What about the Ki [12] of the same compound?
A: 0.001 µM

Q: What about the GI50 [13] of the same compound?
A: 11.2 µM

Q: And the Activity (Mus musculus [5])?
A: Toxic

Q: And the GI50 (MKN-45)?
A: 6.76 µM

Q: What about the GI50 (ACHN) of the same compound?
A: 2.51 µM

Q: And the Activity (Mus musculus [6])?
A: 70%

Q: And the GI50 (SF-539)?
A: 11.5 µM

Q: What about the GI50 (SF-295) of the same compound?
A: 2.95 µM

Q: And the GI50 (NCI-H23)?
A: 6.17 µM

Q: And the GI50 (SNB-75)?
A: 10.2 µM

Q: And the GI50 [14]?
A: 6.17 µM

Q: What about the Activity (Raji [7]) of the same compound?
A: 18.6%

Q: What about the viability at 1 µM [8] of the same compound?
A: 50%

Q: What about the GI50 (MKN-74) of the same compound?
A: 6.92 µM

Q: And the Ki [15]?
A: 0.00018 µM

Q: What about the Activity (Raji [9]) of the same compound?
A: 17.9%

Q: What about the Ki [16] of the same compound?
A: 0.00032 µM

Q: What about the GI50 (DMS-273) of the same compound?
A: 3.47 µM

Q: What about the Ki [17] of the same compound?
A: 0.00069 µM

Q: What about the GI50 [18] of the same compound?
A: 0.0692 µM

Q: And the GI50 (KM12)?
A: 3.47 µM

Q: What about the GI50 (U-251) of the same compound?
A: 7.24 µM

Q: And the GI50 (OVCAR-5)?
A: 4.9 µM

Q: What about the Activity (Mus musculus [10]) of the same compound?
A: 90%

Q: And the GI50 (OVCAR-8)?
A: 14.8 µM

Q: What about the GI50 (SK-OV-3) of the same compound?
A: 7.24 µM

Q: What about the GI50 [19] of the same compound?
A: < 0.01 µM

Q: What about the GI50 (PC-3) of the same compound?
A: 4.57 µM

Q: What about the Ki [20] of the same compound?
A: 0.0015 µM

Q: And the GI50 (DU-145)?
A: 10.7 µM

Q: And the GI50 (NCI-H460)?
A: 0.01 µM

Q: What about the GI50 (A549) of the same compound?
A: 0.145 µM

Q: What about the GI50 (St-4) of the same compound?
A: 0.0129 µM

Q: What about the GI50 (SNB-78) of the same compound?
A: 6.46 µM

Q: And the GI50 (NCI-H226)?
A: 0.0525 µM

Q: What about the GI50 (LOX IMVI) of the same compound?
A: 1.62 µM

Q: What about the GI50 [21] of the same compound?
A: 15.1 µM

Q: And the Ki [22]?
A: 0.0002 µM

Q: And the GI50 (HCT-116)?
A: 8.71 µM

Q: And the Ki [23]?
A: 0.0013 µM
